Results on 6 compounds are retold here after ChEMBL document CHEMBL1139649, “Hetaryl imidazoles: a novel dual inhibitors of VEGF receptors I and II” (Bioorg Med Chem Lett, 2006).

Where only a bound is given, the exact number is not on record here.

As a reminder, the solubility is how much of the substance goes into solution per volume. The term IC50 denotes the concentration needed to halve the response being measured.

In data set [1] the target is Fibroblast growth factor receptor 1 (Homo sapiens) (UniProt P11362). Description: Percent inhibition against FGFR1 at 10 uM by HTRF method. Also noted: scale not given: the % may be the effect or the level left. Background: In TR-FRET formats the signal depends on donor and acceptor labels being close together.
Data set [2] addresses Insulin-like growth factor 1 receptor (Homo sapiens) (UniProt P08069). Description: […] against IGF1R at 10 uM by HTRF method.
For data set [3], the target named is Bcr/Abl fusion protein (Homo sapiens) (UniProt P00519+P11274). Description: Inhibition of bcr-Abl at 10 uM by HTRF method. In kind it is protein assay. Also noted: scale not given: the % may be the effect or the level left.
Data set [4] addresses Cyclin-dependent kinase 2 (Homo sapiens) (UniProt P24941). As to the kind of experiment: […] against Cdk2 at 10 uM by HTRF method.
The target in data set [5] is Receptor-type tyrosine-protein kinase FLT3 (Homo sapiens) (UniProt P36888). As to the kind of experiment: Inhibition of Flt3 at 10 uM by HTRF method. Also noted: scale not given: the % may be the effect or the level left.
A short description of data set [6]: Solubility in water. In kind it is physicochemical.
Data set [7] deals with Hepatocyte growth factor receptor (Homo sapiens) (UniProt P08581). Description: Percent inhibition against c-Met at 10 uM by HTRF method. Also noted: scale not given: the % may be the effect or the level left.
Data set [8] deals with RAC-alpha serine/threonine-protein kinase (Homo sapiens) (UniProt P31749). As to the kind of experiment: […] against PKB/Akt at 10 uM by HTRF method.
For data set [9], the target named is Cyclin-dependent kinase 5 (Homo sapiens) (UniProt Q00535). Description: […] against Cdk5 at 10 uM by HTRF method.
Data set [10] concerns the target Receptor tyrosine-protein kinase erbB-2 (Homo sapiens) (UniProt P04626). Description: […] against ErbB2 at 10 uM by HTRF method.
Data set [11] deals with Glycogen synthase kinase-3 beta (Homo sapiens) (UniProt P49841). As to the kind of experiment: Inhibition against GSK3-beta at 10 uM by HTRF method. Also noted: scale not given: the % may be the effect or the level left.
Data set [12] deals with cAMP-dependent protein kinase (PKA) (Homo sapiens) (UniProt P22694+P17612+P22612). As to the kind of experiment: Inhibition against PKA at 10 uM by HTRF method. In kind it is protein assay. Also noted: scale not given: the % may be the effect or the level left.
Data set [13] addresses T1, Vascular endothelial growth factor receptor 2 (Homo sapiens, UniProt P35968). As to the kind of experiment: Inhibition of VEGFR2 by enzymatic assay.
For data set [14], the target named is Epidermal growth factor receptor (Homo sapiens) (UniProt P00533). As to the kind of experiment: […] against ErbB1 at 10 uM by HTRF method.
Data set [15] concerns the target T2, Ephrin type-B receptor 4 (Homo sapiens) (UniProt P54760).
T2 sequence (whole entry): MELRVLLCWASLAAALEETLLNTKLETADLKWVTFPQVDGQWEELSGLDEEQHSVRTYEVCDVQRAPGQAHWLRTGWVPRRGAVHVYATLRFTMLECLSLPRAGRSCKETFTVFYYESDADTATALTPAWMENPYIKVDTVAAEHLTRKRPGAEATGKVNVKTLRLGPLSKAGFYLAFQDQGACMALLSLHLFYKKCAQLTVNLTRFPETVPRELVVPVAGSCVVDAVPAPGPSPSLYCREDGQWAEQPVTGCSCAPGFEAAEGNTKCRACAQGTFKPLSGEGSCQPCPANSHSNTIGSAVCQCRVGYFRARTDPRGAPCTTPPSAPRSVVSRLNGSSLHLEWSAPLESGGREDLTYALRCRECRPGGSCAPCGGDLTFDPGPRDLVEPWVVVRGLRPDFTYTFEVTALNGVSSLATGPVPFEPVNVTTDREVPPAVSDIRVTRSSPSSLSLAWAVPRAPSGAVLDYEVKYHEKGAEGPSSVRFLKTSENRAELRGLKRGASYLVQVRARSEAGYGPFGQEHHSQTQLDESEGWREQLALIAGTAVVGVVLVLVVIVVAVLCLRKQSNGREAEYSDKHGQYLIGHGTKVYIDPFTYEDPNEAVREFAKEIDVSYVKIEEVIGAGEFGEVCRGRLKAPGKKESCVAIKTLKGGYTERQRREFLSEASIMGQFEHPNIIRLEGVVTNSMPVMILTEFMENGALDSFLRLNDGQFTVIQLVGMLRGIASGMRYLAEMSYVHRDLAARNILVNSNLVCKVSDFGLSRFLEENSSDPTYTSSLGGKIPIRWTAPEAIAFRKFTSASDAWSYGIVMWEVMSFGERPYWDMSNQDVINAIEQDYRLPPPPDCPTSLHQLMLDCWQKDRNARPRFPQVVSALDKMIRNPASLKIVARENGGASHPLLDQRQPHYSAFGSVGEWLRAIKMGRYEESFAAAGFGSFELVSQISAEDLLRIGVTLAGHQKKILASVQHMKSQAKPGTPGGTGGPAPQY
Description: Percent inhibition against EphB4 at 10 uM by HTRF method. The arrangement: scale not given: the % may be the effect or the level left.

The target of data set [16] is Vascular endothelial growth factor receptor 1 (Homo sapiens, UniProt P17948). As to the kind of experiment: Inhibition of VEGFR1 by enzymatic assay.
The target of data set [17] is T1, Vascular endothelial growth factor receptor 2. As to the kind of experiment: Inhibition of VEGFR2 in 293 adenovirus transfected kidney cells by cell-based ELISA assay. In general terms: An ELISA detects its analyte on a solid surface through an enzyme-linked reagent.

Chain of Receptor-type tyrosine-protein kinase FLT3 (Homo sapiens) (P36888 whole entry): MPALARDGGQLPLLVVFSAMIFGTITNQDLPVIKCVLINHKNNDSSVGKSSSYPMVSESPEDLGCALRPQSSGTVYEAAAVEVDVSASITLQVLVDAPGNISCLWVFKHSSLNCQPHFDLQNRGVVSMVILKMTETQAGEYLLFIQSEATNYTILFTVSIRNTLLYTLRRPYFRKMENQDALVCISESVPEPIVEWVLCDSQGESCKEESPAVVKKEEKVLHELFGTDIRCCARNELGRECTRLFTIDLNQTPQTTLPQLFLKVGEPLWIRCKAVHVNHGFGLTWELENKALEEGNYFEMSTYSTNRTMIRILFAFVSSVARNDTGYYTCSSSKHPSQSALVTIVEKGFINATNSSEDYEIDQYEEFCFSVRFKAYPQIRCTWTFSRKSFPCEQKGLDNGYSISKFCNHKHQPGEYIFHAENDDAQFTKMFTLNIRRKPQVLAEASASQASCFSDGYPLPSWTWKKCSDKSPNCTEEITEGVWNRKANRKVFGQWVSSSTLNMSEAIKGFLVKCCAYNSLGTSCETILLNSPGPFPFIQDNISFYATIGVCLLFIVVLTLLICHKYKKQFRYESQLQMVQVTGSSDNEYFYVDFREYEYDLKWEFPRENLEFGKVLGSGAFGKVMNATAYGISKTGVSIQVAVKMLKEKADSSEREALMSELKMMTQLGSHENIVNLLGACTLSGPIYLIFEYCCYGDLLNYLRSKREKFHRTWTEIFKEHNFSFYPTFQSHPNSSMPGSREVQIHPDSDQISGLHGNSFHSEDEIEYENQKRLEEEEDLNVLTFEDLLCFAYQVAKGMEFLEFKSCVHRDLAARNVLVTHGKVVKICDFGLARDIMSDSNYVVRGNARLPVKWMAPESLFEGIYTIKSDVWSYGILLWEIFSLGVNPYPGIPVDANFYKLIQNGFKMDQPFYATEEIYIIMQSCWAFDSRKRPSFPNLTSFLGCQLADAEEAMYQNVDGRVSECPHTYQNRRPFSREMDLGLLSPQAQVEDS
Chain of Epidermal growth factor receptor (Homo sapiens) (P00533 whole entry): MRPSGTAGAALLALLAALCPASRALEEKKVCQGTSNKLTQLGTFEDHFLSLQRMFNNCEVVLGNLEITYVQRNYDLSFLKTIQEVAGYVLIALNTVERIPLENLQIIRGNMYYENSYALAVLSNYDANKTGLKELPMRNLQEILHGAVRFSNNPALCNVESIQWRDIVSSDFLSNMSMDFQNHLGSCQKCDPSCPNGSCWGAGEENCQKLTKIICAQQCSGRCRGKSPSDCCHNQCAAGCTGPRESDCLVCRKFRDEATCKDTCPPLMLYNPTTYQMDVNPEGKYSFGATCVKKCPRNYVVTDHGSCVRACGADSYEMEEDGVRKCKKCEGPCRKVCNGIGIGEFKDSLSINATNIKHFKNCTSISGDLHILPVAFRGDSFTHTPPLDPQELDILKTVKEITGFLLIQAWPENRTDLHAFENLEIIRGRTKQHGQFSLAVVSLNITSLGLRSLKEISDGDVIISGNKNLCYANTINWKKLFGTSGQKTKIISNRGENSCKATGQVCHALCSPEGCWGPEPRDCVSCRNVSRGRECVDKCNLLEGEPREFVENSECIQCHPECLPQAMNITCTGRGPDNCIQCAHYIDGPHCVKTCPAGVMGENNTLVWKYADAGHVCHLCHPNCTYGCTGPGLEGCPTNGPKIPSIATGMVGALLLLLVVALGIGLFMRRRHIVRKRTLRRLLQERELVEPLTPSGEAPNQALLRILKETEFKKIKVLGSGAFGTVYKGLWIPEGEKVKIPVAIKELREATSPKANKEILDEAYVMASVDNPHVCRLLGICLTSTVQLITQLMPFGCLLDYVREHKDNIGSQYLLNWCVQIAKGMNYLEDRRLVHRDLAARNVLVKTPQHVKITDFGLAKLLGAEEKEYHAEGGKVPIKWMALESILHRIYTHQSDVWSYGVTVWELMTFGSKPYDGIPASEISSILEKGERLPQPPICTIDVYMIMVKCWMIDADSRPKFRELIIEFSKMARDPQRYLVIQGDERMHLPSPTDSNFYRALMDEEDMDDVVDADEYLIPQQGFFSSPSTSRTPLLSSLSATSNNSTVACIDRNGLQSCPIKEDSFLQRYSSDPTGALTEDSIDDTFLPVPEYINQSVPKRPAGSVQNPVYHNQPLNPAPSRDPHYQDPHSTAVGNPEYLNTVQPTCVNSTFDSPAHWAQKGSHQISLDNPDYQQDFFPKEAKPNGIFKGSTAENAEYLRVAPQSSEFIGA
Chain of Insulin-like growth factor 1 receptor (Homo sapiens) (P08069 31-736 limits assumed): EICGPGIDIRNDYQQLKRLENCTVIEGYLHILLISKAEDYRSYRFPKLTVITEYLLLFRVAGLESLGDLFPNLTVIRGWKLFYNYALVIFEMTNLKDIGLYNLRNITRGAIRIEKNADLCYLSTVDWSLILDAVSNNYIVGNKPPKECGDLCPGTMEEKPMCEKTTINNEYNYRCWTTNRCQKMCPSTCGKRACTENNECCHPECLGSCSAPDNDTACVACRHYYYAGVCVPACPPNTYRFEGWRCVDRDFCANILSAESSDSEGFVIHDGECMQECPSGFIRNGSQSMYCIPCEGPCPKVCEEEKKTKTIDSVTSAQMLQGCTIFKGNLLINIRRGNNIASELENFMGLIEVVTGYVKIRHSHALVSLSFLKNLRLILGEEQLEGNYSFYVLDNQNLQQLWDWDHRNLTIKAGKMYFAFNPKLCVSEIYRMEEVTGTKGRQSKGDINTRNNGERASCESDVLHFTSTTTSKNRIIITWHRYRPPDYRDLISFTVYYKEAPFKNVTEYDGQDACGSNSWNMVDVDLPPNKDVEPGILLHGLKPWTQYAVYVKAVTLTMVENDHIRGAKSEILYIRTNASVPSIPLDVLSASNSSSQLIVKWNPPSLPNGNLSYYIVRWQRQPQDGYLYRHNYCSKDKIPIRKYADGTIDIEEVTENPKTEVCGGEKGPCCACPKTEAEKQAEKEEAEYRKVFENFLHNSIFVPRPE
Chain of Insulin-like growth factor 1 receptor (Homo sapiens) (P08069 741-1367 limits assumed): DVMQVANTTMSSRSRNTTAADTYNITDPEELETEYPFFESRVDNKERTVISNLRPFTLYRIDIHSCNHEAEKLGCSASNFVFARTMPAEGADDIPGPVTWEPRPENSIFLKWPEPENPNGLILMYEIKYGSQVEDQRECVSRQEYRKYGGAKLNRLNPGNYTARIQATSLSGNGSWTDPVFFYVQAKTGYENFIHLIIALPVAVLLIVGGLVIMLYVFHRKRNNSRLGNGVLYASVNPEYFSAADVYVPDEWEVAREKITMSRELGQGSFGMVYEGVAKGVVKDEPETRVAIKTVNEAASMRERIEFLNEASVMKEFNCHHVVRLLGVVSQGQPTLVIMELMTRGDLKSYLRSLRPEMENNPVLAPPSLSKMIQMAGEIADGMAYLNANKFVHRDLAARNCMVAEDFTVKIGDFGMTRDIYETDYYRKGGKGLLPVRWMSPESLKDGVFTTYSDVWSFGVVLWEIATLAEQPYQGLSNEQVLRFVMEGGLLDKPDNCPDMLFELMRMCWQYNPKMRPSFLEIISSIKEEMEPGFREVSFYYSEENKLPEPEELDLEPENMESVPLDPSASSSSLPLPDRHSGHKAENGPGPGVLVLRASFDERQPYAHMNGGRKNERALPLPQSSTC
Chain of Vascular endothelial growth factor receptor 1 (P17948 whole entry): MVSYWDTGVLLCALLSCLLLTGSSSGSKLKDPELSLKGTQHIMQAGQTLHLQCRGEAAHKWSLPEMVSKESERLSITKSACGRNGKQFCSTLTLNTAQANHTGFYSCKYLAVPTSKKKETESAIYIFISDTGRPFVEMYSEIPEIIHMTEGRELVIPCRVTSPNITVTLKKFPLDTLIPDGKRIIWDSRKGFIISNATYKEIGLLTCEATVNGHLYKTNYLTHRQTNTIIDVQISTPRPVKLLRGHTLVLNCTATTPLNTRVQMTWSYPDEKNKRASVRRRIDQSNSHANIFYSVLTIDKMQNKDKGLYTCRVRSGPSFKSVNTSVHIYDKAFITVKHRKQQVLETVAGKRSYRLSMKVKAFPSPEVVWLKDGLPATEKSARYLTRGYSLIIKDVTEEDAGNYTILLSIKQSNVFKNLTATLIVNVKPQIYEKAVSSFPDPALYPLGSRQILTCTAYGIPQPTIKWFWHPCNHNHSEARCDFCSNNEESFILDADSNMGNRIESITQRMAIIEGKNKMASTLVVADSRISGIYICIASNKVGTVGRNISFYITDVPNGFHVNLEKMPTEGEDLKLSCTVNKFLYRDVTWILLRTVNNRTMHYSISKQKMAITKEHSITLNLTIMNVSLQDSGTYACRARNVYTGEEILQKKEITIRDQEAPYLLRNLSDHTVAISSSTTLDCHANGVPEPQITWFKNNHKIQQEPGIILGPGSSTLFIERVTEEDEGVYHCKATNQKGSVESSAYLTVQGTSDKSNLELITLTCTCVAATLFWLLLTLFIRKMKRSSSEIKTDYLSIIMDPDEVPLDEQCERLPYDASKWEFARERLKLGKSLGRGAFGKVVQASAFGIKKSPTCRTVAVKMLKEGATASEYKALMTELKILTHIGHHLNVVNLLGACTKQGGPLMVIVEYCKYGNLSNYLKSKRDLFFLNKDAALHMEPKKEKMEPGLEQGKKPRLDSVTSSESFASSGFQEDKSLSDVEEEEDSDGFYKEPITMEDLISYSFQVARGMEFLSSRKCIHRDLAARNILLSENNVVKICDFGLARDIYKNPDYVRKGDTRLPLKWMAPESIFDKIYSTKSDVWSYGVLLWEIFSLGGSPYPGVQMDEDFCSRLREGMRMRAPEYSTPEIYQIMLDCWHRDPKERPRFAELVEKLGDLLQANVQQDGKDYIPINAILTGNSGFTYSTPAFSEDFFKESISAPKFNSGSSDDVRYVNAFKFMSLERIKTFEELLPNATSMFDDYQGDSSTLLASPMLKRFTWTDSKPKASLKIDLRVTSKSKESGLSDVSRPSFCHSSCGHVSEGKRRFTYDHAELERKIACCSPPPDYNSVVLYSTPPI

With `COc1ccc(Nc2nnc(-c3c(NCc4ccncc4)ncn3C)o2)cc1OC`, the Activity in data set [1], in [2], in data set [3], in data set [5], in data set [7] and in [8] was below 30% throughout. The Activity in data set [9], in [10], in data set [11], in [12] and in [15] was below 30% throughout. Further, the Percent inhibition in data set [4] and in data set [14] was below 30% in each case. This compound registered a solubility in [6] above 5 mM. Further, the values for the IC50 in data set [13], in [16] and in data set [17] were 52 nM, 590 nM and 93 nM, respectively.

With `Cn1cnc(NCc2ccncc2)c1-c1nnc(Nc2ccc(OC(F)(F)Cl)cc2)o1`, the Activity in data set [1], in data set [2], in data set [3], in data set [5], in data set [7] and in [8] was below 30% throughout. Besides, the Activity in data set [9], in [10], in [11], in data set [12] and in data set [15] was below 30% each time. Further, the Percent inhibition in [4] and in data set [14] was below 30% in each case. Also, the solubility in [6] was above 5 mM. In addition, the half-inhibitory concentration (IC50) in data set [13] worked out at 130 nM; in data set [16], 460 nM; in data set [17] it was 96 nM.

`COc1cccc(Nc2nnc(-c3c(NCc4ccncc4)ncn3C)o2)c1`: the Activity in data set [1], in data set [2], in [3], in data set [5], in data set [7] and in data set [8] was below 30% in each case. Moreover, the Activity in data set [9], in [10], in data set [11], in data set [12] and in data set [15] was below 30% in each case. Besides, the Percent inhibition in data set [4] and in data set [14] was below 30% each time. Also, the solubility in [6] was above 5 mM. The IC50 in data set [13] was 130 nM; in [16], 670 nM; in data set [17], 64 nM.

For `Cn1cnc(NCc2ccncc2)c1-c1nnc(Nc2ccc(C(F)(F)F)cc2)o1`, the Activity in [1], in [2], in data set [3], in [5], in data set [7] and in data set [8] was below 30% in each case. The Activity in [9], in data set [10], in data set [11], in data set [12] and in [15] was below 30% throughout. The Percent inhibition in data set [4] and in [14] was below 30% each time. The compound also had a solubility in data set [6] above 5 mM. Also, the 50% inhibitory concentration (IC50) came to 73 nM in data set [13], 120 nM in data set [16] and 82 nM in data set [17].

Regarding `Cn1cnc(NCc2ccncc2)c1-c1nnc(Nc2ccc(OC(F)(F)F)cc2)o1`, the Activity in data set [1], in [2], in data set [3], in [5], in data set [7] and in data set [8] was below 30% each time. The Activity in data set [9], in data set [10], in data set [11], in [12] and in data set [15] was below 30% in each case. The Percent inhibition in [4] and in data set [14] was below 30% in each case. This compound also came in with a solubility in data set [6] above 5 mM. Besides, the IC50 in data set [13] turned out to be 93 nM; in [16], 160 nM; in data set [17], 66 nM.

As for `Cn1cnc(NCc2ccncc2)c1-c1nnc(NCc2ccc3c(c2)OCO3)o1`, the Activity in [1], in data set [2], in data set [3], in [5], in data set [7] and in data set [8] was below 30% throughout. The Activity in data set [9], in data set [10], in [11], in data set [12] and in data set [15] was below 30% in each case. Besides, the Percent inhibition in [4] and in data set [14] was below 30% in each case. Also, the IC50 in data set [13] worked out at 140 nM; in [16], 440 nM; in [17], 270 nM.
